Measured values reported in US9963467B2, “Boronic acid derivatives and therapeutic uses thereof” (Rempex Pharmaceuticals, Inc., priority 2014, dated 2018).

Columns and labels:
[1] = tested on: strains of various bacteria that are resistant to aztreonam due to expression of various β-lactamases; assay: Aztreonam MIC of test strains; assay type: cell-based; settings: read-out: Aztreonam MICs of test strains; across the test strains
KP1004 (KPC-2) [2] = assay: Aztreonam potentiation (MPC@4), KP1004; assay type: cell-based; settings: read-out: Aztreonam MIC KP1004
ec302 (TEM-10) [3] = assay: Aztreonam potentiation (MPC@4), ec302; assay type: cell-based
KP1010 (SHV-12) [4] = assay: Aztreonam potentiation (MPC@4), KP1010; assay type: cell-based
ECL1002 [5] = assay: Aztreonam potentiation (MPC@4), ECL1002; assay type: cell-based
ec308 (SHV-5) [6] = assay: Aztreonam potentiation (MPC@4), ec308; assay type: cell-based; settings: for AZT MPC4 SHV-5 ec308: BLI with aztreonam at 4 μg/mL
KP1009 (CTX-M-15) [7] = assay: organism not typed; assay type: cell-based
EC1010 (CMY-6) [8] = assay: organism not typed; assay type: cell-based
KP1005 (CTX-M-14) [9] = assay: Aztreonam potentiation (MPC@4), KP1005; assay type: cell-based
ec308 (SHV-5) [10] = assay: Tigemonam potentiation (MPC@4), ec308; assay type: cell-based
KP1010 (SHV-12) [11] = assay: Tigemonam potentiation (MPC@4), KP1010; assay type: cell-based
PAM1032/KPC-2 = assay: Biapenem potentiation MPC64, PAM1032/KPC-2 (efflux proficient); assay type: cell-based, Pseudomonas aeruginosa; settings: BLI to decrease MIC of biapenem 64-fold; MexAB-OprM overexpressed
Description: (§1) Efflux of BLIs from Pseudomonas aeruginosa by the MexAB-OprM efflux pump was also evaluated. […] Due to expression of KPC-2 both strains became resistant to biapenem. […] Potency of BLIs to potentiate biapenem in these strains was determined. […] The ratio of MPC64 values for each BLI in PAM1032/KPC-2 (efflux proficient) and PAM1154/KPC-2 (efflux deficient) was determined to generate the Efflux Index (EI).

PAM1154/KPC-2 = assay: Biapenem potentiation MPC64, PAM1154/KPC-2 (efflux deficient); assay type: cell-based, Pseudomonas aeruginosa; settings: BLI to decrease MIC of biapenem 64-fold; lacking MexAB-OprM
Description: as §1

ec302 (TEM-10) [12] = assay: Tigemonam potentiation (MPC@4), ec302; assay type: cell-based
KP1009 (CTX-M-15) [13] = assay: Tigemonam potentiation (MPC@4), KP1009; assay type: cell-based; settings: for TIG MPC4 CTX-M-15 KP1009: BLI with tigemonam at 4 μg/mL
KP1004 (KPC-2) [14] = assay: Biapenem potentiation (MPC@1), KP1004; settings: BLI with biapenem at 1 μg/mL
KP1005 (CTX-M-14) [15] = assay: Tigemonam potentiation (MPC@4), KP1005; assay type: cell-based; settings: for TIG MPC4 CTX-M-14 KP1005: BLI with tigemonam at 4 μg/mL
KP1086 (OXA-48) = assay: Biapenem potentiation (MPC@1), KP1086; settings: BLI with biapenem at 1 μg/mL
OXA-48 = OXA-48 (Klebsiella pneumoniae, UniProt Q6XEC0); assay: Ki, nitrocefin cleavage by purified enzyme, OXA-48; assay type: biochemical; settings: nitrocefin reporter substrate; read-out: Ki (OXA-48, NCF)
Procedure, shortened: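 10 min RT preincubation, enzyme with inhibitor series in reaction buffer. Substrate nitrocefin; kinetic read 490 nm, 10 sec intervals, 10 min total.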

ECL1002 [16] = assay: Tigemonam potentiation (MPC@4), ECL1002; assay type: cell-based; settings: for TIG MPC4 ECL1002: BLI with tigemonam at 4 μg/mL
[17] = Intravenous pharmacokinetics; assay type: in vivo; settings: rat, plasma; rats, 20 mg/kg, intravenous infusion over 0.5 hours; read-out: Free Cl (converted)
Description: Rats (n=3 per compound) were administered by a single infusion. Intravenous doses were infused over 0.5 hours via an indwelling femoral vein cannula. […] (˜0.3 mL) samples were collected from each rat at designated time points up to 24 hours. Blood samples were centrifuged within 5 min of collection at 12000 g for 5 min to obtain plasma. The plasma samples were stored at −80° C. until analyzed. Data were analyzed using WinNonlin. The doses of all compounds tested were 20 mg/kg.

[18] = tested on: strains overexpressing class A (ESBL) and class C beta-lactamases; assay: Tigemonam MIC of test strains; assay type: cell-based; settings: across the test strains
EC1010 (CMY-6) [19] = assay: Tigemonam potentiation (MPC@4), EC1010; assay type: cell-based; settings: tigemonam alone

Chain of OXA-48 (Q6XEC0 23-265, looked up, species assumed): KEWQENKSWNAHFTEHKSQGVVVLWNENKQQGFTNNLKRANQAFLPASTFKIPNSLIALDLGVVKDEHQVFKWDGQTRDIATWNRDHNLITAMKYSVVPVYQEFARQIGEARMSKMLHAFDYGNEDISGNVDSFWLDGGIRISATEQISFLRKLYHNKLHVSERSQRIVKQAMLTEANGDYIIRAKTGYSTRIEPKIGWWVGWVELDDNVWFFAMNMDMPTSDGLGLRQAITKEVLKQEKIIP

Structure (SMILES)	TIG MPC4 SHV-5 ec308 (ec308 (SHV-5) [10])	TIG MPC4 SHV-12 KP1010 (KP1010 (SHV-12) [11])	PAM1032/KPC-2 Biapenem MPC64 (PAM1032/KPC-2)	AZT MPC4 SHV-12 KP1010 (KP1010 (SHV-12) [4])	TIG MPC4 TEM-10 ec302 (ec302 (TEM-10) [12])	TIG MPC4 CTX-M-15 KP1009 (KP1009 (CTX-M-15) [13])	BPM MPC1 KP1004 KPC-2 (KP1004 (KPC-2) [14])	AZT MPC4 SHV-5 ec308 (ec308 (SHV-5) [6])	TIG MPC4 CTX-M-14 KP1005 (KP1005 (CTX-M-14) [15])	BPM MPC1 OXA-48 KP1086 (KP1086 (OXA-48))	AZT MPC4 CTX-M-15 KP1009 (KP1009 (CTX-M-15) [7])	AZT MPC4 CMY-6 EC1010 (EC1010 (CMY-6) [8])	TIG MPC4 ECL1002 (ECL1002 [16])	other results
C[C@H]1[C@H](NC(=O)/C(=N\OC(C)(C)C(=O)O)c2csc(N)n2)C(=O)N1S(=O)(=O)O [Aztreonam, reference compound]														MIC [1]: ≥ 64 µg/mL; MIC (KP1004 (KPC-2) [2]): > 10 µg/mL; MIC (ec302 (TEM-10) [3]; read-out: Aztreonam MIC ec302): > 10 µg/mL; MIC (KP1010 (SHV-12) [4]; read-out: Aztreonam MIC KP1010): > 10 µg/mL; MIC (ECL1002 [5]; read-out: Aztreonam MIC ECL1002): > 10 µg/mL; MIC (ec308 (SHV-5) [6]; read-out: Aztreonam MIC ec308): > 10 µg/mL; MIC (KP1009 (CTX-M-15) [7]; read-out: Aztreonam MIC KP1009): > 10 µg/mL; MIC (EC1010 (CMY-6) [8]; read-out: Aztreonam MIC EC1010): > 10 µg/mL; MIC (KP1005 (CTX-M-14) [9]; read-out: Aztreonam MIC KP1005): > 10 µg/mL
O=CN[C@H]1Cc2cccc(C(=O)O)c2OB1O [F, reference compound]	Y (key: X: MIC of less than 1 ng/mL; Y: MIC of 1 μg/mL to 10 μg/mL; Z: MIC of greater than 10 μg/mL)	Y (key: X: MIC of less than 1 ng/mL; Y: MIC of 1 μg/mL to 10 μg/mL; Z: MIC of greater than 10 μg/mL)	5	Y (key: X: MIC of less than 1 ng/mL; Y: MIC of 1 μg/mL to 10 μg/mL; Z: MIC of greater than 10 μg/mL)	Z (key: X: MIC of less than 1 ng/mL; Y: MIC of 1 μg/mL to 10 μg/mL; Z: MIC of greater than 10 μg/mL)	Y (MIC of 1 μg/mL to 10 μg/mL)	X (MIC of less than 1 μg/mL)	Y (MIC of 1 μg/mL to 10 μg/mL)	Y (MIC of 1 μg/mL to 10 μg/mL)	Y (MIC of 1 μg/mL to 10 μg/mL)	Y (key: X: MIC of less than 1 ng/mL; Y: MIC of 1 μg/mL to 10 μg/mL; Z: MIC of greater than 10 μg/mL)	Y (key: X: MIC of less than 1 ng/mL; Y: MIC of 1 μg/mL to 10 μg/mL; Z: MIC of greater than 10 μg/mL)	X (MIC of less than 1 μg/mL)	AZT MPC4 TEM-10 ec302 (ec302 (TEM-10) [3]; BLI with aztreonam at 4 μg/mL): Z (MIC of greater than 10 μg/mL); PAM1154/KPC-2 Biapenem MPC64 (PAM1154/KPC-2): 1.25; AZT MPC4 ECL1002 (ECL1002 [5]; BLI with aztreonam at 4 μg/mL): Y (MIC of 1 μg/mL to 10 μg/mL); Ki (OXA-48): < 1 nM; AZT MPC4 CTX-M-14 KP1005 (KP1005 (CTX-M-14) [9]; BLI with aztreonam at 4 μg/mL): Y (MIC of 1 μg/mL to 10 μg/mL)
O=C(Cc1cccs1)N[C@H]1Cc2cccc(C(=O)O)c2OB1O [I, reference compound]	X (key: X: MIC of less than 1 μg/mL; Y: MIC of 1 μg/mL to 10 μg/mL; Z: MIC of greater than 10 μg/mL)	X (key: X: MIC of less than 1 μg/mL; Y: MIC of 1 μg/mL to 10 μg/mL; Z: MIC of greater than 10 μg/mL)	80	X (key: X: MIC of less than 1 ng/mL; Y: MIC of 1 μg/mL to 10 μg/mL; Z: MIC of greater than 10 μg/mL)	Z (key: X: MIC of less than 1 ng/mL; Y: MIC of 1 μg/mL to 10 μg/mL; Z: MIC of greater than 10 μg/mL)	Y (MIC of 1 μg/mL to 10 μg/mL)	X (MIC of less than 1 μg/mL)	X (MIC of less than 1 ng/mL)	Y (MIC of 1 μg/mL to 10 μg/mL)	Y (MIC of 1 μg/mL to 10 μg/mL)	Y (key: X: MIC of less than 1 ng/mL; Y: MIC of 1 μg/mL to 10 μg/mL; Z: MIC of greater than 10 μg/mL)	Y (key: X: MIC of less than 1 ng/mL; Y: MIC of 1 μg/mL to 10 μg/mL; Z: MIC of greater than 10 μg/mL)	X (MIC of less than 1 μg/mL)	clearance [17]: 136 mL/min/kg
CC1(C)[C@H](NC(=O)/C(=N\OCC(=O)O)c2csc(N)n2)C(=O)N1OS(=O)(=O)O [Tigemonam, reference compound]														Tigemonam MICs of test strains [18]: ≥ 16 µg/mL; Tigemonam MIC ec308 (ec308 (SHV-5) [10]; tigemonam alone): Z (MIC of greater than 10 μg/mL); Tigemonam MIC KP1010 (KP1010 (SHV-12) [11]; tigemonam alone): Z (MIC of greater than 10 μg/mL); Tigemonam MIC ec302 (ec302 (TEM-10) [12]; tigemonam alone): Z (MIC of greater than 10 μg/mL); Tigemonam MIC KP1009 (KP1009 (CTX-M-15) [13]; tigemonam alone): Z (MIC of greater than 10 μg/mL); Tigemonam MIC KP1005 (KP1005 (CTX-M-14) [15]; tigemonam alone): Z (MIC of greater than 10 μg/mL); Tigemonam MIC EC1010 (EC1010 (CMY-6) [19]): Z (MIC of greater than 10 μg/mL); Tigemonam MIC ECL1002 (ECL1002 [16]; tigemonam alone): Z (MIC of greater than 10 μg/mL)
